# Laboratory results reported in the NIST ThermoML archive (doi:10.1016/j.fluid.2014.11.020).
# ± gives the expanded uncertainty stated by the source.
# Experiment: activity coefficient (dimensionless); of the first substance listed, at infinite dilution; xn = mol fraction of the nth substance listed
# Conditions: Liquid, Chromatography, x1 = 0
SMILES,activity coefficient (323.15 K),activity coefficient (333.15 K),activity coefficient (343.15 K)
c1ccccc1 [benzene] + CCCOC[n+]1ccn(C)c1.F[B-](F)(F)F,3.51 ± 0.24,3.45 ± 0.23,3.46 ± 0.24
c1ccccc1 [benzene] + CCCOC[n+]1ccn(C)c1.N#C[N-]C#N,2.25 ± 0.15,2.27 ± 0.15,2.29 ± 0.16
c1ccccc1 [benzene] + CCCOC[n+]1ccn(C)c1.O=S(=O)([N-]S(=O)(=O)C(F)(F)F)C(F)(F)F,1.2 ± 0.08,1.17 ± 0.07,1.17 ± 0.07
c1ccccc1 [benzene] + CCCOC[n+]1ccn(Cc2ccccc2)c1.F[B-](F)(F)F,2.01 ± 0.14,2 ± 0.14,1.99 ± 0.14
c1ccccc1 [benzene] + CCCOC[n+]1ccn(Cc2ccccc2)c1.N#C[N-]C#N,1.51 ± 0.1,1.5 ± 0.1,1.5 ± 0.1
c1ccccc1 [benzene] + CCCOC[n+]1ccn(Cc2ccccc2)c1.O=S(=O)([N-]S(=O)(=O)C(F)(F)F)C(F)(F)F,0.81 ± 0.05,0.71 ± 0.05,0.71 ± 0.05
c1ccccc1 [benzene] + CN(C)c1cc[n+](COCCCOC[n+]2ccc(N(C)C)cc2)cc1.O=S(=O)([N-]S(=O)(=O)C(F)(F)F)C(F)(F)F.O=S(=O)([N-]S(=O)(=O)C(F)(F)F)C(F)(F)F,0.66 ± 0.05,0.67 ± 0.05,0.68 ± 0.05
c1ccccc1 [benzene] + Cn1cc[n+](COCCCOC[n+]2ccn(C)c2)c1.N#C[N-]C#N.N#C[N-]C#N,3.03 ± 0.21,3.05 ± 0.21,3.08 ± 0.21
c1ccccc1 [benzene] + Cn1cc[n+](COCCCOC[n+]2ccn(C)c2)c1.O=S(=O)([N-]S(=O)(=O)C(F)(F)F)C(F)(F)F.O=S(=O)([N-]S(=O)(=O)C(F)(F)F)C(F)(F)F,0.94 ± 0.06,0.94 ± 0.06,0.9 ± 0.06
c1ccccc1 [benzene] + N#C[N-]C#N.N#C[N-]C#N.c1ccc(Cn2cc[n+](COCCCOC[n+]3ccn(Cc4ccccc4)c3)c2)cc1,3.09 ± 0.21,2.95 ± 0.2,2.92 ± 0.2
CCCCO [butan-1-ol] + CCCCCCCCn1cc[n+](COCCC)c1C.O=S(=O)([N-]S(=O)(=O)C(F)(F)F)C(F)(F)F,5.47 ± 0.37,4.33 ± 0.3,4.28 ± 0.29
CCCCO [butan-1-ol] + CCCCCCCCn1cc[n+](COCCCOC[n+]2ccn(CCCCCCCC)c2C)c1C.N#C[N-]C#N.N#C[N-]C#N,7.49 ± 0.51,5.96 ± 0.41,4.81 ± 0.33
CCCCO [butan-1-ol] + CCCCCCCCn1cc[n+](COCCCOC[n+]2ccn(CCCCCCCC)c2C)c1C.O=S(=O)([N-]S(=O)(=O)C(F)(F)F)C(F)(F)F.O=S(=O)([N-]S(=O)(=O)C(F)(F)F)C(F)(F)F,0.84 ± 0.05,0.74 ± 0.05,0.69 ± 0.05
CCCCO [butan-1-ol] + CCCOC[n+]1ccc(N(C)C)cc1.O=S(=O)([N-]S(=O)(=O)C(F)(F)F)C(F)(F)F,2.25 ± 0.15,2.04 ± 0.14,1.85 ± 0.12
CCCCO [butan-1-ol] + CCCOC[n+]1ccn(C)c1.F[B-](F)(F)F,4.61 ± 0.31,4.17 ± 0.28,3.76 ± 0.26
CCCCO [butan-1-ol] + CCCOC[n+]1ccn(C)c1.N#C[N-]C#N,1.37 ± 0.09,1.32 ± 0.09,1.27 ± 0.08
CCCCO [butan-1-ol] + CCCOC[n+]1ccn(C)c1.O=S(=O)([N-]S(=O)(=O)C(F)(F)F)C(F)(F)F,2.37 ± 0.16,2.09 ± 0.14,1.89 ± 0.13

SMILES,activity coefficient (323.15 K),activity coefficient (333.15 K),activity coefficient (343.15 K)
CCCCO [butan-1-ol] + CCCOC[n+]1ccn(Cc2ccccc2)c1.F[B-](F)(F)F,3 ± 0.2,2.59 ± 0.18,2.39 ± 0.16
CCCCO [butan-1-ol] + CCCOC[n+]1ccn(Cc2ccccc2)c1.N#C[N-]C#N,0.93 ± 0.06,0.88 ± 0.06,0.82 ± 0.05
CCCCO [butan-1-ol] + CN(C)c1cc[n+](COCCCOC[n+]2ccc(N(C)C)cc2)cc1.O=S(=O)([N-]S(=O)(=O)C(F)(F)F)C(F)(F)F.O=S(=O)([N-]S(=O)(=O)C(F)(F)F)C(F)(F)F,1.95 ± 0.13,1.64 ± 0.11,1.58 ± 0.1
CCCCO [butan-1-ol] + Cn1cc[n+](COCCCOC[n+]2ccn(C)c2)c1.N#C[N-]C#N.N#C[N-]C#N,2.21 ± 0.15,1.9 ± 0.13,1.79 ± 0.12
CCCCO [butan-1-ol] + Cn1cc[n+](COCCCOC[n+]2ccn(C)c2)c1.O=S(=O)([N-]S(=O)(=O)C(F)(F)F)C(F)(F)F.O=S(=O)([N-]S(=O)(=O)C(F)(F)F)C(F)(F)F,2.02 ± 0.14,1.85 ± 0.12,1.64 ± 0.11
CCCCO [butan-1-ol] + N#C[N-]C#N.N#C[N-]C#N.c1ccc(Cn2cc[n+](COCCCOC[n+]3ccn(Cc4ccccc4)c3)c2)cc1,1.8 ± 0.12,1.68 ± 0.11,1.61 ± 0.11
CCC(C)=O [butanone] + CCCCCCCCn1cc[n+](COCCC)c1C.N#C[N-]C#N,0.7 ± 0.05,0.64 ± 0.04,0.55 ± 0.04
CCC(C)=O [butanone] + CCCCCCCCn1cc[n+](COCCC)c1C.O=S(=O)([N-]S(=O)(=O)C(F)(F)F)C(F)(F)F,0.36 ± 0.03,0.33 ± 0.03,0.3 ± 0.03
CCC(C)=O [butanone] + CCCCCCCCn1cc[n+](COCCCOC[n+]2ccn(CCCCCCCC)c2C)c1C.N#C[N-]C#N.N#C[N-]C#N,0.56 ± 0.04,0.5 ± 0.04,0.46 ± 0.04
CCC(C)=O [butanone] + CCCCCCCCn1cc[n+](COCCCOC[n+]2ccn(CCCCCCCC)c2C)c1C.O=S(=O)([N-]S(=O)(=O)C(F)(F)F)C(F)(F)F.O=S(=O)([N-]S(=O)(=O)C(F)(F)F)C(F)(F)F,0.21 ± 0.03,0.19 ± 0.03,0.18 ± 0.03
CCC(C)=O [butanone] + CCCOC[n+]1ccc(N(C)C)cc1.O=S(=O)([N-]S(=O)(=O)C(F)(F)F)C(F)(F)F,0.51 ± 0.04,0.49 ± 0.04,0.45 ± 0.04
CCC(C)=O [butanone] + CCCOC[n+]1ccn(C)c1.F[B-](F)(F)F,1.73 ± 0.12,1.6 ± 0.11,1.49 ± 0.1
CCC(C)=O [butanone] + CCCOC[n+]1ccn(C)c1.N#C[N-]C#N,1.27 ± 0.08,1.19 ± 0.08,1.12 ± 0.07
CCC(C)=O [butanone] + CCCOC[n+]1ccn(C)c1.O=S(=O)([N-]S(=O)(=O)C(F)(F)F)C(F)(F)F,0.47 ± 0.04,0.43 ± 0.04,0.4 ± 0.03
CCC(C)=O [butanone] + CCCOC[n+]1ccn(Cc2ccccc2)c1.F[B-](F)(F)F,1.06 ± 0.07,0.96 ± 0.06,0.89 ± 0.06
CCC(C)=O [butanone] + CCCOC[n+]1ccn(Cc2ccccc2)c1.N#C[N-]C#N,0.9 ± 0.06,0.87 ± 0.06,0.81 ± 0.05
